Earlier results, collected in PMC12281572.
Several values for one entry are separate records, joined by “and”; a condition that tells them apart may be missing. Equal values may be shown once.

Experiment: FTIR, 4-fluorophenol as donor (the pK_BHX database, per the paper)
Details: CCl4; 25 C

pK_BHX (log10 Kf of the 1:1 H-bond complex with 4-fluorophenol, by FTIR) | SMILES
2.16 log units | CC(=O)N1CCOCC1
2.79 log units | CN1CCCN(C)C1=O
1.12 log units | COC(=O)C1CC1
1.4 log units | Cc1cccc(NC(=Nc2ccccc2)c2ccccc2)c1
0.25 log units | CSC(C)(C)C
-0.14 log units | C1CSCCS1
2.09 log units | CCCN=C(NC)NC#N
1.49 log units | CN=Cc1ccccc1
-0.38 log units | C1CSCS1
0.23 log units | CCN(CC)CC(F)(F)F
0.5 log units and 0.16 log units | CCOC(=O)c1ccc([N+](=O)[O-])cc1
1.21 log units | CSc1ccc(C(C)=O)cc1
0.48 log units | FC1C2CC3CC(C2)C(F)C1C3 (stereo not shown)
0.88 log units | Cc1ccc(C#N)cc1
2.08 log units | COc1ccc(N=CN(C)C)cc1
2.35 log units | C=Cn1ccnc1
2.26 log units | CCC(C)(C)N=CN(C)C
-0.02 log units | FC1C2CC3CC(C2)CC1C3 (stereo not shown)
2.25 log units | CCNC
1.7 log units | CN(C)C=CC#N
1.38 log units | FC(F)(F)c1cccc(C2CCCN2)c1 (stereo not shown)
1.44 log units | CC(=Nc1ccccc1)N(C)c1cccc(Cl)c1
-0.33 log units | CC(C)(C)I
1.71 log units | CC(=O)c1ccc(N2CCCCC2)cc1
1.15 log units | Cc1ccc(C(=S)N(C)C)cc1
1.58 log units | CN1CN(C)CN(C)C1

pK_BHX (log10 Kf of the 1:1 H-bond complex with 4-fluorophenol, by FTIR) | SMILES
2.07 log units | Cc1ccc(N=CN(C)C)cc1
1.24 log units | CC(=Nc1cccc(Br)c1)Nc1ccccc1
1.6 log units | CN(C)C=NCC(F)(F)F
0.41 log units | Cc1cccc(N(C)C)c1
1.44 log units | C1C2CC3CC1CC(C2)C3C1OC1C1C2CC3CC(C2)CC1C3 (stereo not shown)
-0.85 log units | CC(C)=C(C)C
2.26 log units | CN(C)C=NCC(C)(C)C
1.18 log units | C(=NCc1ccccc1)c1ccccc1
1.16 log units | CN(C)Cc1cccc(C(F)(F)F)c1
-0.67 log units | C=CCCCCC
2.03 log units | CNC(=O)c1ccccc1
0.87 log units | Brc1ccc(N=C(Nc2ccc(Br)cc2)c2ccccc2)cc1
2.41 log units | CC(=O)N(C1CCCCC1)C1CCCCC1
2.58 log units | CN(N)c1ccncc1
1.37 log units | CN(C)C=Nc1ccccc1Br
0.35 log units | O=COc1ccccc1
1.41 log units | COC(=O)N(c1ccccc1)c1ccccc1
1.12 log units | CCOC(=O)C1CC1
2.07 log units | CCc1ccncc1
2.24 log units | Cc1ccncc1C
2.11 log units | CC(C)(C)c1ccncc1
2.92 log units | CN(C)C=NC(=O)N(C)C
2.3 log units | CNC(C)=O
0.3 log units | S=C1SCCS1
2.59 log units | CC1=NCCC1
1.79 log units | CN(C)C=NC(=S)N(C)C

pK_BHX (log10 Kf of the 1:1 H-bond complex with 4-fluorophenol, by FTIR) | SMILES
1.76 log units | CC(=Nc1ccccc1)N(C)c1ccc(C)cc1
1.11 log units | COc1ccccc1C=O
2.11 log units | CC(C)N(C)C
1.0 log units | CN(C)S(C)(=O)=O
1.25 log units | CCc1ccc(C(C)=O)cc1
1.56 log units | [O-][n+]1cc(Cl)cc(Cl)c1
0.76 log units | CCOC(=O)c1ccc(C(=O)OCC)cc1
1.05 log units | Clc1cccc(N=C(Nc2ccccc2)c2ccccc2)c1
2.59 log units | C1CNC1
1.84 log units | Cn1cccn1
1.92 log units | C=CCN(C)C
1.51 log units | CN(C)C=NS(=O)(=O)c1ccccc1
1.64 log units | CC(C)(C)C(=O)N(c1ccccc1)c1ccccc1
0.9 log units | CCN(CC)c1ccc([N+](=O)[O-])cc1
1.58 log units | CC(=Nc1ccc(Br)cc1)Nc1ccc(C)cc1
1.27 log units | OC12CC3CC(CC(C3)C1)C2
1.47 log units | CCN(C)Cc1ccccc1
2.33 log units | CCN(CC)c1ccc(C(=O)c2ccc(N(CC)CC)cc2)cc1
2.19 log units | CC(=O)N(C)c1ccccc1
1.28 log units | NCc1cc(F)cc(F)c1
1.58 log units | NCc1cccc(F)c1
1.14 log units | CCN(C)Cc1cccc(F)c1
2.09 log units | CCOC(=O)C=CN(C)C
1.55 log units | NCc1cccc(Cl)c1
0.17 log units | CCCCSC

SMILES | pK_BHX (log10 Kf of the 1:1 H-bond complex with 4-fluorophenol, by FTIR)
O=c1cc(-c2ccccc2)oc2ccccc12 | 1.99 log units
O=C1CCCCCO1 | 1.63 log units
CC(=O)c1ccc(C)cc1 | 1.24 log units
COC(=O)OC | 0.82 log units
N | 1.74 log units
OC1CCCCC1 | 1.14 log units
Cc1cc(=O)cc(C)o1 | 2.5 log units
O=S(Cc1ccccc1)Cc1ccccc1 | 2.43 log units
c1ccc2c(c1)CCO2 | 0.21 log units
Cn1ccccc1=O | 2.5 log units
CCOC(=O)C(=O)OCC | 0.65 log units
CO | 0.82 log units
CC(C)C(=O)C(C)C | 1.08 log units
Oc1ccc(F)cc1 | -0.12 log units
c1ccc2c(c1)ccc1ccccc12 | -0.53 log units
ClCCCCCl | -0.47 log units
CN1C2CCCC1CC2 | 2.39 log units
C1CCCNCC1 | 2.24 log units
CC(C)C(=O)N(C)C | 2.26 log units

SMILES | pK_BHX (log10 Kf of the 1:1 H-bond complex with 4-fluorophenol, by FTIR)
c1ccc2scnc2c1 | 1.29 log units
CNC1CCCCC1 | 2.24 log units
CC(C)N | 2.2 log units
O=C(C(=O)c1ccccc1)c1ccccc1 | 0.44 log units
Nc1ncccn1 | 1.55 log units
COc1ccc(C(=O)c2ccc(OC)cc2)cc1 | 1.49 log units
CCN(CC)C(=O)Cl | 1.08 log units
O=S1OCCO1 | 0.87 log units
CCCCCCCCCCCCCCCCN | 2.26 log units
Oc1ccccc1 | -0.07 log units
CCN(CC)C(=O)c1ccccc1 | 2.26 log units
N#Cc1ccccc1Br | 0.71 log units
c1ccc(-c2ccccn2)nc1 | 1.15 log units
CNc1ccc(Cl)cc1 | 0.05 log units
OC(C(F)(F)F)C(F)(F)F | -0.96 log units
CCCCN | 2.19 log units
Cc1cc(C)nc(C)c1 | 2.29 log units
COc1ccccc1 | -0.07 log units
CN(C)C(=S)Cl | 0.5 log units
